The results in this text go back to patent US10329243B2, “Biphenyl derivative and uses thereof” (XI'AN LIBANG PHARMACEUTICAL CO., LTD, priority 2015, dated 2019).

Holding throughout (format): in vivo, SD rats
What all share (conditions): rat, in vivo

Test [1] deals with SOD. The test can be described thus: SOD determination, permanent cerebral ischemia model. On the procedure:
(§1) Rats were intraperitoneally injected with 10% chloral hydrate 350 mg/kg after anesthesia and opened up at the center of the neck in accordance with the Zea Longa modified method. The right common carotid artery was separated, and the right external carotid artery branches was ligated. A small opening was made at the distal end of the external carotid artery, and a previously prepared thread was inserted through the common carotid artery and the external carotid artery bifurcation into the internal carotid artery, till the anterior end of the middle cerebral artery, with an immersed depth of 18 to 19 mm. The thread was then secured, and the wound was sutured layer by layer. After the operation, the rats were placed in a clean incubator to wake up. […] The sham operation group, the permanent cerebral ischemia model group, and the Example groups were prepared strictly according to the requirements of the cerebral ischemic reperfusion model, while in the sham operation group the thread was put only into the external carotid artery. The animals were allowed to eat and drink freely after waking up. The sham operation group, the permanent cerebral ischemia model group, and the Example groups were administered intravenously the aqueous solution of the biphenyl derivatives in PEG400 at 40 mg/kg (40 mg/kg means that 40 mg of the test compound per kg of the body weight of rats) 30 min before insertion of thread and 12 h after embolism, respectively. The sham operation group and the permanent cerebral ischemia model group were injected with the same amount of blank PEG400 aqueous solution at the same time point.
(§2) 24 hours after the embolism, 8 rats in each group were sacrificed by decapitation, the brain was removed, rinsed with PBS (pH 7.4) at −20°i for 20 min, evenly sliced (with a thickness of 2 mm), stained in a 2% TTC solution at 37°% in the dark for 30 min, fixed in 10% formalin for 24 h, and photographs were taken to analyze the infarct volume. A mixture of femoral arterial and venous blood was drawn from another 8 rats in each group under anesthesia, placed in a low temperature centrifuge at 4° C., centrifuged at 3500 r/min for 20 min, and the supernatant was stored in a refrigerator at −20° C. ready for SOD and MDA detection. After the blood was drawn, a perfusion needle was insert through the apex to the ascending aorta, and saline at 4° C. was rapid infused until the effluent became clear, followed by 4% paraformaldehyde phosphate buffer perfusion for fixation; the brain was removed by craniotomy, and brain tissues 2 mm in front of and behind the optic chiasma were taken and fixed, dehydrated, rendered transparent, impregnated in wax, and embedded. Brain continuous coronary tissue pathological sections were consecutively cut for later use. The remaining 8 rats in each group were sacrificed, brains were removed, the ischemic brain hemispheres were immediately taken on an ice tray, and 10% brain tissue homogenate was prepared for the detection of IL-1β and TNF-α.
(§3) SOD and MDA were determined strictly in accordance with instructions of the kit.

The subject of test [2] is MDA. In words: MDA determination, permanent cerebral ischemia model. On the procedure: as §1, §2, §3
The test system of test [3] is SOD. The test can be described thus: SOD determination, cerebral ischemic reperfusion MCAO model. On the procedure: as §1, with “group, the ischemic reperfusion group, and” for “group, the permanent cerebral ischemia model group, and”, “waking up. After 2 h, the thread was pulled out to achieve reperfusion. The sham” for “waking up. The sham”, “min before reperfusion and 12” for “min before insertion of thread and 12”, “h after reperfusion, respectively. The” for “h after embolism, respectively. The”, “and the ischemic reperfusion group were” for “and the permanent cerebral ischemia model group were”
as §2, with “reperfusion,” for “the embolism,”, “−20° i” for “−20°i”
as §3

Test [4] deals with MDA. In words: MDA determination, cerebral ischemic reperfusion MCAO model. On the procedure: as §1, with “group, the ischemic reperfusion group, and” for “group, the permanent cerebral ischemia model group, and”, “waking up. After 2 h, the thread was pulled out to achieve reperfusion. The sham” for “waking up. The sham”, “min before reperfusion and 12” for “min before insertion of thread and 12”, “h after reperfusion, respectively. The” for “h after embolism, respectively. The”, “and the ischemic reperfusion group were” for “and the permanent cerebral ischemia model group were”
as §2, with “reperfusion,” for “the embolism,”, “−20° i” for “−20°i”
as §3

Test [5] concerns Fas. The test can be described thus: Fas determination (immunohistochemical method), permanent cerebral ischemia model. On the procedure:
as §1, §2
(§4) The immunohistochemical method was used for determination. Brain tissue paraffin sections were dewaxed into water, washed with 3% H2O2 to eliminate endogenous peroxidase activity, and rinsed with distilled water for 3 times. Sodium citrate buffer was used for antigen heat repairing, and blocking with calf serum was carried out at room temperature for 15 min; a rabbit anti-mouse Fas antibody was added dropwise, allowed to stand at 4°t overnight, biotinylated goat anti-rabbit IgG was added dropwise, and heated in a water bath at 37°a for 20 min. Washing with PBS for 5 min was continuously repeated 4 times, followed by staining with DAB and sufficient washing without counterstaining. The sections were then gradient dehydrated with alcohol, made transparent with toluene, sealed and fixed. Images were captured by a video camera under high-power optical microscope and inputted into the image analysis system for image analysis. […]

In test [6] the test system is Fas. In words: Fas determination (immunohistochemical method), cerebral ischemic reperfusion MCAO model. On the procedure: as §1, with “group, the ischemic reperfusion group, and” for “group, the permanent cerebral ischemia model group, and”, “waking up. After 2 h, the thread was pulled out to achieve reperfusion. The sham” for “waking up. The sham”, “min before reperfusion and 12” for “min before insertion of thread and 12”, “h after reperfusion, respectively. The” for “h after embolism, respectively. The”, “and the ischemic reperfusion group were” for “and the permanent cerebral ischemia model group were”
as §2, with “reperfusion,” for “the embolism,”, “−20° i” for “−20°i”
as §4

Turning to `CC(C)c1cccc(C(C)C)c1O` [Propofol injection, propofol, reference compound], the “SOD ACTIVITY (U/mL)” value in the test with SOD [1] is 89.13 ± 3.82 U/mL; in the test on SOD [3], 88.25 ± 2.19 U/mL. The entries for the “MDA CONTENT” value in the test on MDA [2] and in the test with MDA [4] were 6.10 ± 0.29 mmol/mL and 5.58 ± 0.48 mmol/mL, respectively. The “Fas average gray value” in the test on Fas [5] stood at 140.51 ± 4.84. In addition, the “Fas average gray scale” value in the test on Fas [6] came to 142.15 ± 5.71.
